Converted amounts (≈) assume the structure as drawn. Like-named read-outs stand apart in the source and are kept apart here.
Columns and labels:
C. albicans ATCC 10231 = assay: MIC determination, reference fungal strain (microdilution); type: cell-based; details: Candida albicans, ATCC10231; C. albicans ATCC 10231; read-out: MIC
E. faecalis ATCC 51299 = assay: MIC determination, reference strain (microdilution); type: cell-based; details: Enterococcus faecalis, ATCC51299; E. faecalis ATCC 51299; Co-trimoxazole as sulfamethoxazole/trimethoprim; read-out: MIC
[1] = test system: S. epidermidis ATCC 14990; assay: as above; type: cell-based; details: Staphylococcus epidermidis, ATCC14990; S. epidermidis ATCC 14990; Co-trimoxazole as sulfamethoxazole/trimethoprim; read-out: MIC
SKOV-3 cells = assay: MTT assay; type: cell-based, human; details: for IC50: Homo sapiens, SK-OV-3, SKOV-3, MTT, 24 h treatment, read-out: IC50; for Selectivity index (SI): IC50 HEK-293 / IC50 SKOV-3
E. coli ATCC 8739 = assay: MIC determination, reference strain (microdilution); type: cell-based; details: Escherichia coli, ATCC8739; E. coli ATCC 8739; Co-trimoxazole as sulfamethoxazole/trimethoprim; read-out: MIC
HeLa cells = assay: MTT assay; type: cell-based, human; details: for IC50: HeLa, MTT, 24 h treatment; for Selectivity index (SI): IC50 HEK-293 / IC50 HeLa
DPPH assay = details: DPPH radical scavenging; 40 min, room temperature
Method: The DPPH assay was performed spectrophotometrically. The amount of 30 µL of different concentrations of samples, dissolved in methanol/DMSO (9/1 v/v), was mixed with 170 µL of 0.06 mM DPPH methanolic solution and completed with methanol to a final volume of 300 µL. DPPH methanolic solution with methanol/DMSO (9/1 v/v) was used as a control. After 40 min of incubation at room temperature in the dark, the absorbance was analyzed at λ = 510 nm by a 96-well microplate reader (Epoch, BioTek System, Santa Clara, CA, USA). Ascorbic acid was used as a standard.
DPPH inhibition was calculated by the following equation:DPPH Inhibition (%) = [Acontrol − Asample)/Acontrol] × 100%
IC50 values of the samples were calculated using program GraFit v. 7.0 (Erithacus Software). The analysis was performed three times, with tree replications in each (n = 9). Statistical analysis was performed with one-way ANOVA with Tuckey’s post-hoc test.

MCF-7 cells = assay: MTT assay; type: cell-based, human; details: for IC50: Homo sapiens, MCF7, MCF-7, MTT, 24 h treatment, read-out: IC50; for Selectivity index (SI): IC50 HEK-293 / IC50 MCF-7
E. hirae ATCC 10541 = assay: MIC determination, reference strain (microdilution); type: cell-based; details: Enterococcus hirae, ATCC10541; E. hirae ATCC 10541; Co-trimoxazole as sulfamethoxazole/trimethoprim; read-out: MIC
[2] = test system: S. epidermidis ATCC 14990; assay: Blood bacteriostatic activity test in sheep blood; type: cell-based, Staphylococcus epidermidis; details: 24 h, 37 °C, t0 1.70 × 10^7, control t24 5.10 × 10^8
Method: (§1) The manifestation of the bactericidal properties of chemical compounds is low minimum bactericidal concentration (MBC) values, which allows many groups of researchers to check the killing rate over time (time killing tests). It is an important element in determining the strength and speed of action of a compound on bacteria. Such studies are usually carried out in bacterial media, without additional factors influencing the results.
(§2) This step was carried out on two types of bacteria, S. aureus ATCC 6538 (Figure 8 and Table 2) and S. epidermidis ATCC 14 990 (Figure 9 and Table 3).
(§3) The number of bacteria at the initial time (t0) was 1.30 × 10^8 CFU/mL for S. aureus and 1.70 × 10^7 CFU/mL for S. epidermidis. Live bacterial cells were assayed after 24 h of incubation at 37 °C. […] Bacterial controls without compounds grew unhindered and after 24 h (t24) were 2.28 × 10^9 for S. aureus and 5.10 × 10^8 CFU/mL for S. epidermidis. […] It can be assumed that the tested compounds were not related to any fraction of the blood. Attention should be paid to the S. epidermidis tests and the difference between the number of bacteria at t0 and after 24 h of incubation for each compound. The number of bacteria at t0 was 1.70 × 10^7 CFU/mL and after 24 h it decreased to, e.g., 9.40 × 10^6 CFU/mL for compounds 16e and 7.80 × 10^6 CFU/mL for compound 17c. It can be assumed that the tested compounds after being added to blood samples prevented bacteria from multiplying. However, under these conditions, the phagocytic cells take up the bacteria. […] This can be explained by much greater variety of mechanisms of action of S. aureus against phagocytic cells than of S. epidermidis. This can be integrated with the bacterial cell compounds, e.g., protein A, as well as enzymes that bacteria can secrete outside the cell, e.g., coagulase and staphylokinase. Additional studies should be conducted to check how the tested compounds affect the enzymes secreted by S. aureus.
(§4) The assay was performed as previously described by with a modification. Pure sheep blood was used for the research. Two strains of bacteria S. aureus ATCC 6538 and S. epidermidis ATCC 14990 were used with an inoculum density of approximately 10^8 CFU/mL at 0 time. The final concentration of the compounds was 0.5, 1, 2, 4, and 8 µg/mL, and the final volume of the assay tube was 1 mL. Bacterial survivors were determined on MH agar plates (CFU/mL) at 24 h after exposure.

C. diphtheriae = assay: MIC determination, reference strain (microdilution); type: cell-based; details: Corynebacterium diphtheriae; C. diphtheriae; Co-trimoxazole as sulfamethoxazole/trimethoprim; read-out: MIC
S. aureus ATCC 6538 = assay: Blood bacteriostatic activity test in sheep blood; type: cell-based, Staphylococcus aureus; details: 24 h, 37 °C, t0 1.30 × 10^8, control t24 2.28 × 10^9
Method: as §1, §2, §3, §4

HEK-293 cells = assay: MTT assay, noncancerous cells; type: cell-based; details: Homo sapiens, HEK293; HEK-293; MTT, 24 h treatment; read-out: IC50
[3] = Homo sapiens, 24 h, read-out: IC50

MIC (C. albicans ATCC 10231)	MIC (E. faecalis ATCC 51299)	MIC [1]	IC50 (SKOV-3 cells)	MIC (E. coli ATCC 8739)	IC50 (HeLa cells; [3])	IC50 DPPH (DPPH assay)	IC50 (MCF-7 cells)	MIC (E. hirae ATCC 10541)	MIC (C. diphtheriae)	SMILES	Selectivity index (SI) (SKOV-3 cells)	Selectivity index (SI) (HeLa cells)	Selectivity index (SI) (MCF-7 cells)	Number of viable cells of Staphylococcus epidermidis ([2]; 1 µg/mL)	Number of viable cells of Staphylococcus epidermidis ([2]; 2 µg/mL)	Number of viable cells of Staphylococcus epidermidis ([2]; 4 µg/mL)	Number of viable cells of Staphylococcus epidermidis ([2]; 8 µg/mL)	Number of viable cells of Staphylococcus aureus (S. aureus ATCC 6538; 1 µg/mL)	Number of viable cells of Staphylococcus aureus (S. aureus ATCC 6538; 2 µg/mL)	Number of viable cells of Staphylococcus aureus (S. aureus ATCC 6538; 4 µg/mL)	other results
> 125 µg/mL	4 ± 0.15 µg/mL (≈ 7.19 µM)	1 ± 0.29 µg/mL (≈ 1.8 µM)	12.2 ± 0.23 µg/mL (≈ 21.9 µM)	> 125 µg/mL	12.3 ± 0.2 µg/mL (≈ 22.2 µM)	539.30 ± 0.13 µg/mL (≈ 970 µM)	15.5 ± 0.82 µg/mL (≈ 27.8 µM)	4 ± 0.15 µg/mL (≈ 7.19 µM)	62.5 ± 0.29 µg/mL (≈ 112 µM)	COc1ccc(/C=C/C(=O)NS(=O)(=O)c2cc(C)c(Cl)cc2SCc2cccc3ccccc23)cc1F [Compound 16e, (E)–N–{4–Chloro–5–methyl–2–[(naphthalen–1–yl)methylthio]phenylsulfonyl}–3–(3–fluoro–4–methoxyphenyl)acrylamide]	0.8	0.8	0.6	9.40 × 10^6 CFU/mL	4.00 × 10^6 CFU/mL	3.20 × 10^6 CFU/mL	3.00 × 10^6 CFU/mL	2.15 × 10^8 CFU/mL	1.27 × 10^8 CFU/mL	1.94 × 10^8 CFU/mL	Number of viable cells of Staphylococcus aureus (S. aureus ATCC 6538; 8 µg/mL): 2.80 × 10^8 CFU/mL; IC50 (HEK-293 cells): 10 ± 0.23 µg/mL (≈ 18 µM)
> 125 µg/mL	2 ± 0.87 µg/mL (≈ 3.69 µM)	1 ± 0.29 µg/mL (≈ 1.84 µM)	7.87 ± 0.03 µg/mL (≈ 14.5 µM)	> 125 µg/mL	< 10 µg/mL	348.21 ± 0.29 µg/mL (≈ 642 µM)	12.8 ± 0.29 µg/mL (≈ 23.6 µM)	2 ± 0.58 µg/mL (≈ 3.69 µM)	> 125 µg/mL	Cc1cc(S(=O)(=O)NC(=O)/C=C/c2ccc(Cl)cc2)c(SCc2cccc3ccccc23)cc1Cl [Compound 16d, (E)–N–{4–Chloro–5–methyl–2–[(naphthalen–1–yl)methylthio]phenylsulfonyl}–3–(4–chlorophenyl)acrylamide]	1.4	1.1	0.8	4.00 × 10^6 CFU/mL	3.00 × 10^6 CFU/mL	2.00 × 10^6 CFU/mL	2.50 × 10^6 CFU/mL	1.88 × 10^8 CFU/mL	1.66 × 10^8 CFU/mL	1.58 × 10^8 CFU/mL	IC50 (HeLa cells): 9.66 ± 0.75 µg/mL (≈ 17.8 µM); Number of viable cells of Staphylococcus aureus (S. aureus ATCC 6538; 8 µg/mL): 1.27 × 10^8 CFU/mL; IC50 (HEK-293 cells): 10.8 ± 0.4 µg/mL (≈ 19.9 µM)
> 125 µg/mL	2 ± 0.58 µg/mL (≈ 3.5 µM)	1 ± 0.29 µg/mL (≈ 1.75 µM)	12 ± 1.07 µg/mL (≈ 20.9 µM)	> 125 µg/mL	11.2 ± 0.7 µg/mL (≈ 19.7 µM)	1077.66 ± 0.42 µg/mL (≈ 1890 µM)	11.6 ± 0.91 µg/mL (≈ 20.4 µM)	2 ± 0.58 µg/mL (≈ 3.5 µM)	> 125 µg/mL	Cc1cc(S(=O)(=O)NC(=O)/C=C/c2ccc(Cl)cc2)c(SCc2cc3c(cc2Cl)OCO3)cc1Cl [Compound 17c, (E)–N–{4–Chloro–2–[(6–chlorobenzo[d][1,3]dioxol–5–yl)methylthio]–5–methylphenylsulfonyl}–3–(4–chlorophenyl)acrylamide]	1.2	1.3	1.2	7.80 × 10^6 CFU/mL	4.25 × 10^6 CFU/mL	1.40 × 10^7 CFU/mL	5.10 × 10^6 CFU/mL	2.24 × 10^8 CFU/mL	1.09 × 10^8 CFU/mL	2.02 × 10^8 CFU/mL	Number of viable cells of Staphylococcus aureus (S. aureus ATCC 6538; 8 µg/mL): 9.35 × 10^7 CFU/mL; IC50 (HEK-293 cells): 14.6 ± 0.58 µg/mL (≈ 25.5 µM)
